{"source": "paper PMC9661477", "about": "“New Dual P-Glycoprotein (P-gp) and Human Carbonic Anhydrase XII (hCA XII) Inhibitors as Multidrug Resistance (MDR) Reversers in Cancer Cells” (Journal of Medicinal Chemistry, 2022)", "key": {"[1]": {"system": "A549/DOX cells", "assay": "kinetic parameters of doxorubicin efflux in A549/DOX cells", "format": "cell-based, human", "conditions": "doxorubicin alone", "experimental": "(§1) Cells were incubated for 3 h with 5 μM doxorubicin, alone or with the selected compounds, washed with PBS, trypsinized, centrifuged at 13 000g for 5 min, and resuspended in 0.5 mL of 1/1 solution ethanol/0.3 N HCl. […] To calculate the kinetic parameters, cells were incubated for 20 min with increasing (0–100 μM) concentrations of doxorubicin, alone or with the indicated compounds, then analyzed for the intracellular concentration of doxorubicin. […] The difference in the doxorubicin concentration between the two series, expressed as nmol doxorubicin extruded/min/mg cell proteins, was plotted versus the initial drug concentration.[69] Values were fitted to the Michaelis–Menten equation to calculate Vmax and Km, using the Enzfitter software (Biosoft Corporation, Cambridge, United Kingdom)."}, "[2]": {"system": "hCA XII KO HT29/DOX cells", "assay": "doxorubicin cytotoxicity enhancement assay in hCA XII KO HT29/DOX cells", "format": "cell-based", "conditions": "Homo sapiens, HT-29"}, "[3]": {"system": "hCA XII KO HT29/DOX cells", "assay": "kinetic parameters of doxorubicin efflux in hCA XII KO HT29/DOX cells", "format": "cell-based, human", "conditions": "doxorubicin alone", "experimental": "as §1"}, "[4]": {"system": "HT29/DOX cells", "assay": "kinetic parameters of doxorubicin efflux in HT29/DOX cells", "format": "cell-based, human", "conditions": "doxorubicin alone", "experimental": "as §1"}, "[5]": {"system": "P-gp KO HT29/DOX cells", "assay": "cells", "conditions": "Homo sapiens, HT-29, read-out: IC50 of doxorubicin"}, "[6]": {"system": "HT29 cells", "assay": "kinetic parameters of doxorubicin efflux in HT29 cells", "format": "cell-based, human", "conditions": "doxorubicin alone", "experimental": "as §1"}, "[7]": {"system": "hCA XII KO A549/DOX cells", "assay": "kinetic parameters of doxorubicin efflux in hCA XII KO A549/DOX cells", "format": "cell-based, human", "conditions": "doxorubicin alone", "experimental": "as §1"}, "[8]": {"system": "hCA XII KO A549/DOX cells", "assay": "doxorubicin cytotoxicity enhancement assay in hCA XII KO A549/DOX cells", "format": "cell-based", "conditions": "Homo sapiens"}, "[9]": {"system": "HT29 cells", "assay": "doxorubicin cytotoxicity in HT29 cells", "format": "cell-based", "conditions": "Homo sapiens, HT-29, 72 h, MTT", "quoted_text": "Human chemosensitive colon cancer HT29 cells, lung cancer A549 cells, not-transformed human colon epithelial EpiCoC cells, and lung epithelial BEAS-2B cells were purchased from ATCC (Manassas, VA). […] Cells were maintained in media supplemented with 10% v/v fetal bovine serum, 1% v/v penicillin–streptomycin, and 1% v/v L-glutamine. […] Knockout efficacy was evaluated by immunoblotting, as reported below."}, "[10]": {"system": "A549/DOX cells", "assay": "cells", "conditions": "Homo sapiens, A549, 72 h, read-out: IC50 of doxorubicin"}, "[11]": {"system": "A549 cells", "assay": "kinetic parameters of doxorubicin efflux in A549 cells", "format": "cell-based, human", "conditions": "doxorubicin alone", "experimental": "as §1"}, "[12]": {"system": "HT29/DOX cells", "assay": "cells", "conditions": "Homo sapiens, HT-29, 72 h, read-out: IC50 of doxorubicin"}, "[13]": {"system": "P-gp KO A549/DOX cells", "assay": "cells", "conditions": "Homo sapiens, A549, read-out: IC50 of doxorubicin"}}, "data": [{"compound": "COc1cccc2c1C(=O)c1c(O)c3c(c(O)c1C2=O)C[C@@](O)(C(=O)CO)C[C@@H]3O[C@H]1C[C@H](N)[C@H](O)[C@H](C)O1", "note": "[DOX, doxorubicin]", "values": [{"measurement": "Km", "setting": "[1]", "value": "0.45 ± 0.019", "unit": "µM"}, {"measurement": "Vmax of doxorubicin efflux", "setting": "[1]", "value": "7.51 ± 0.31", "unit": "µmol/min"}, {"measurement": "IC50", "setting": "[2]", "value": "1300 ± 60", "unit": "nM"}, {"measurement": "Km", "setting": "[3]", "value": "0.58 ± 0.03", "unit": "µM"}, {"measurement": "Vmax of doxorubicin efflux", "setting": "[3]", "value": "5.47 ± 0.12", "unit": "µmol/min"}, {"measurement": "Km", "setting": "[4]", "value": "0.54 ± 0.01", "unit": "µM"}, {"measurement": "Vmax of doxorubicin efflux", "setting": "[4]", "value": "8.10 ± 0.15", "unit": "µmol/min"}, {"measurement": "IC50", "setting": "[5]", "value": "460 ± 13", "unit": "nM"}, {"measurement": "Km", "setting": "[6]", "value": "0.55 ± 0.028", "unit": "µM"}, {"measurement": "Vmax of doxorubicin efflux", "setting": "[6]", "value": "3.21 ± 0.04", "unit": "µmol/min"}, {"measurement": "Km", "setting": "[7]", "value": "0.55 ± 0.028", "unit": "µM"}, {"measurement": "Vmax of doxorubicin efflux", "setting": "[7]", "value": "4.08 ± 0.32", "unit": "µmol/min"}, {"measurement": "IC50", "setting": "[8]", "value": "5440 ± 1500", "unit": "nM"}, {"measurement": "IC50", "setting": "[9]", "value": "1380 ± 30", "unit": "nM"}, {"measurement": "IC50", "setting": "[10]", "value": "15500 ± 930", "unit": "nM"}, {"measurement": "Km", "setting": "[11]", "value": "0.47 ± 0.017", "unit": "µM"}, {"measurement": "Vmax of doxorubicin efflux", "setting": "[11]", "value": "2.35 ± 0.08", "unit": "µmol/min"}, {"measurement": "IC50", "setting": "[12]", "value": "12000 ± 850", "unit": "nM"}, {"measurement": "IC50", "setting": "[13]", "value": "900 ± 13", "unit": "nM"}]}]}
